Consider 18 molecules from US12478624B2, “Heterocyclic derivatives, pharmaceutical compositions and their use in the treatment or amelioration of cancer” (Tolremo Therapeutics AG, priority 2019, dated 2025).

Molecules are shown by their SMILES.

One assay concerns OPM-2. The assay is described as follows: Assay 2: multiple myeloma cellular efficacy, PrestoBlue cell proliferation/survival. The class given is cell-based. Particulars: Homo sapiens, 96 h, OPM-2 cells, 4 days. As for the experimental part:
Multiple Myeloma Cellular Efficacy:
10000 OPM-2 (ACC50; DSMZ) were plated into wells of a 384 well plate (Greiner 781090). Cells were treated for 4 days with a dose range of compound or vehicle. At the end of the experiment cells were stained directly with PrestoBlue (ThermoFisher Scietific; A13262) for 2 hours at 37° C. in a humidified incubator according to manufactor's instruction. To assess the relative cell number the PrestoBlue signal was measured using either a TecanM1000Pro reader or a Tecan Sparks reader following the manufactor's instructions. Background (no cells) values were subtracted and set in relation to the vehicle control. To assess the EC50 of each compound the relative fluorescence value was plotted against the compound concentration after log transformation. Data were fitted in a nonlinear manner with a variable slope (four parameters) using graphpad prism software. Cellular efficacy of compounds was evaluated in the multiple myeloma cell line OPM-2 using the cell proliferation/survival assay PrestoBlue. EC50 values are classified as indicated below.

For another assay, the system named is A375 cells. The experiment in a line: Assay 1: A375 cells treated with S1152, S1008 and compound, immunofluorescence (sc-365823) signal. It is filed as cell-based. To be noted: 1 μM S1152 + 0.5 μM S1008, one day. The gist of the method: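 A375 cells treated one day with 1 μM S1152, 0.5 μM S1008 and compound dose ranges in DMEM/10% FCS, then fixed, permeabilised and immunostained. Green signal normalised to nuclear counterstain (ethidium-type or DAPI), log ratio fitted by four-parameter regression for EC50.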

On to `CC(=O)N1C[C@H](c2nc(Nc3cccc(-c4cn(C)nn4)c3)cc(-c3cnccn3)n2)CC[C@@H]1C` [Compound 00068, 1-((2S,5R)-2-methyl-5-(4-((3-(1-methyl-1H-1,2,3-triazol-4-yl)phenyl)amino)-6-(pyrazin-2-yl)pyrimidin-2-yl)piperidin-1-yl)ethan-1-one], for which the EC50 in the assay on OPM-2 and with A375 cells was less than 0.2 µM in each case.

With `CC(=O)N1C[C@H](c2nc(Nc3cc(F)cc(N4CCOCC4)c3)cc(-c3cnccn3)n2)CC[C@@H]1C` [Compound 00070, 1-((2S,5R)-5-(4-((3-fluoro-5-morpholinophenyl)amino)-6-(pyrazin-2-yl)pyrimidin-2-yl)-2-methylpiperidin-1-yl)ethan-1-one], the EC50 with OPM-2 and in the assay on A375 cells was less than 0.2 µM in each case.

Consider `CC(=O)N1C[C@H](c2nc(Nc3cccc(-n4ccc(C)n4)c3)cc(-c3cccnc3)n2)CC[C@@H]1C` [Compound 00077, 1-((2S,5R)-2-methyl-5-(4-((3-(3-methyl-1H-pyrazol-1-yl)phenyl)amino)-6-(pyridin-3-yl)pyrimidin-2-yl)piperidin-1-yl)ethan-1-one], for which the results for the EC50 in the assay on OPM-2 and in the assay with A375 cells were 0.2 to 1 µM and less than 0.2 µM, respectively.

As to `CC(=O)N1C[C@H](c2nc(Nc3cccc(-n4cncn4)c3)cc(-c3cccnc3)n2)CC[C@@H]1C` [Compound 00078, 1-((2S,5R)-5-(4-((3-(1H-1,2,4-triazol-1-yl)phenyl)amino)-6-(pyridin-3-yl)pyrimidin-2-yl)-2-methylpiperidin-1-yl)ethan-1-one], the EC50 in the assay with OPM-2 and with A375 cells was less than 0.2 µM in each case.

For `CC(=O)N1C[C@H](c2nc(Nc3cccc(NC(=O)c4ccccc4)c3)cc(-c3cccnc3)n2)CC[C@@H]1C` [Compound 00079, N-(3-((2-((3R,6S)-1-acetyl-6-methylpiperidin-3-yl)-6-(pyridin-3-yl)pyrimidin-4-yl)amino)phenyl)benzamide], the EC50 with OPM-2 and in the assay with A375 cells was less than 0.2 µM in each case.

Turning to `CC(=O)N1C[C@H](c2nc(Nc3cccc(F)c3)cc(-c3cccnc3)n2)CC[C@@H]1C` [Compound 00080, 1-((2S,5R)-5-(4-((3-fluorophenyl)amino)-6-(pyridin-3-yl)pyrimidin-2-yl)-2-methylpiperidin-1-yl)ethan-1-one], the figures for the EC50 in the assay on OPM-2 and with A375 cells were 0.2 to 1 µM and less than 0.2 µM, respectively.

On to `CC(=O)N1C[C@H](c2nc(Nc3cccc(-n4ccnn4)c3)cc(-c3cccnc3)n2)CC[C@@H]1C` [Compound 00083, 1-((2S,5R)-5-(4-((3-(1H-1,2,3-triazol-1-yl)phenyl)amino)-6-(pyridin-3-yl)pyrimidin-2-yl)-2-methylpiperidin-1-yl)ethan1-one], for which the EC50 – broadly, the concentration that produces a half-maximal response – was 0.2 to 1 µM in the assay with OPM-2 and less than 0.2 µM with A375 cells.

For `COCC(=O)Nc1cccc(Nc2cc(-c3cccnc3)nc([C@@H]3CC[C@H](C)N(C(C)=O)C3)n2)c1` [Compound 00084, N-(3-((2-((3R,6S)-1-acetyl-6-methylpiperidin-3-yl)-6-(pyridin-3-yl)pyrimidin-4-yl)amino)phenyl)-2-methoxyacetamide], the EC50 in the assay on OPM-2 is 0.2 to 1 µM; in the assay with A375 cells, less than 0.2 µM.

With `CC(=O)Nc1cccc(Nc2cc(-c3cncc4c3ccn4C)nc([C@@H]3CC[C@H](C)N(C(C)=O)C3)n2)c1` [Compound 00085, N-(3-((2-((3R,6S)-1-acetyl-6-methylpiperidin-3-yl)-6-(1-methyl-1H-pyrrolo[2,3-c]pyridin-4-yl)pyrimidin-4-yl)amino)phenyl)acetamide], the EC50 in the assay with OPM-2 and in the assay with A375 cells was less than 0.2 µM in each case.

Consider `CC(=O)N1C[C@H](c2nc(Nc3cccc(N4CCC4=O)c3)cc(-c3cccnc3)n2)CC[C@@H]1C` [Compound 00087, 1-(3-((2-((3R,6S)-1-acetyl-6-methylpiperidin-3-yl)-6-(pyridin-3-yl)pyrimidin-4-yl)amino)phenyl)azetidin-2-one], for which the EC50 was 0.2 to 1 µM in the assay with OPM-2 and less than 0.2 µM in the assay with A375 cells.

For the molecule `CC(=O)N1C[C@H](c2nc(Nc3cccc(N4CCOC4=O)c3)cc(-c3cccnc3)n2)CC[C@@H]1C` [Compound 00088, 3-(3-((2-((3R,6S)-1-acetyl-6-methylpiperidin-3-yl)-6-(pyridin-3-yl)pyrimidin-4-yl)amino)phenyl)oxazolidin-2-one], the EC50 was 0.2 to 1 µM in the assay with OPM-2 and less than 0.2 µM in the assay with A375 cells.

For the molecule `CC(=O)N1C[C@H](c2nc(Nc3cccc(NC(=O)C4CC4)c3)cc(-c3cccnc3)n2)CC[C@@H]1C` [Compound 00089, N-(3-((2-((3R,6S)-1-acetyl-6-methylpiperidin-3-yl)-6-(pyridin3-yl)pyrimidin-4-yl)amino)phenyl)-cyclopropanecarboxamide], the EC50 in the assay on OPM-2 and in the assay on A375 cells was less than 0.2 µM throughout.

On to `COCCOc1cncc(-c2cc(Nc3cc(F)cc(-c4cnn(C)c4)c3)nc([C@@H]3CC[C@H](C)N(C(C)=O)C3)n2)c1` [Compound 00091, 1-((2S,5R)-5-(4-((3-fluoro-5-(1-methyl-1H-pyrazol-4-yl)phenyl)amino)-6-(5-(2-methoxyethoxy)pyridin-3-yl)pyrimidin-2-yl)-2-methylpiperidin-1-yl)ethan-1-one], for which the EC50 with OPM-2 and with A375 cells was less than 0.2 µM each time.

With `CC(=O)N1C[C@H](c2nc(Nc3cc(F)cc(-c4cnn(C)c4)c3)cc(-c3cncc(OCCO)c3)n2)CC[C@@H]1C` [Compound 00093, 1-((2S,5R)-5-(4-((3-fluoro-5-(1-methyl-1H-pyrazol-4-yl)phenyl)amino)-6-(5-(2-hydroxyethoxy)pyridin-3-yl)pyrimidin-2-yl)-2-methylpiperidin-1-yl)ethan-1-one], the EC50 in the assay with OPM-2 and in the assay with A375 cells was less than 0.2 µM each time.

`COCCn1ccc2c(-c3cc(Nc4cccc(-c5cn(C)nn5)c4)nc([C@@H]4CC[C@H](C)N(C(C)=O)C4)n3)cncc21` [Compound 00094, 1-((2S,5R)-5-(4-(1-(2-methoxyethyl)-1H-pyrrolo[2,3-c]pyridin4-yl)-6-((3-(1-methyl-1H-1,2,3-triazol-4-yl)phenyl)amino)pyrimidin-2-yl)-2-methylpiperidin-1-yl)ethan1-one]: the EC50 in the assay on OPM-2 and with A375 cells was less than 0.2 µM in each case.

For `CC(=O)N1C[C@H](c2nc(Nc3ccnc(C)c3)cc(-c3cccnc3)n2)CC[C@@H]1C` [Compound 00095, 1-((2S,5R)-2-methyl-5-(4-((2-methylpyridin-4-yl)amino)-6-(pyridin-3-yl)pyrimidin-2-yl)piperidin-1-yl)ethan-1-one], the EC50 in the assay with OPM-2 and in the assay on A375 cells was less than 0.2 µM each time.

Consider `CC(=O)N1C[C@H](c2nc(Nc3ccnc(C)c3)cc(-c3cc(C)cs3)n2)CC[C@@H]1C` [Compound 00105, 1-((2S,5R)-2-methyl-5-(4-((2-methylpyridin-4-yl)amino)-6-(4-methylthiophen-2-yl)pyrimidin-2-yl)piperidin-1-yl)ethan-1-one], for which the EC50 in the assay with OPM-2 is 0.2 to 1 µM; in the assay on A375 cells, less than 0.2 µM.

In the case of `CC(=O)N1C[C@H](c2nc(Nc3cncc(C(F)F)c3)cc(-c3cccnc3)n2)CC[C@@H]1C` [Compound 00107, 1-((2S,5R)-5-(4-((5-(difluoromethyl)pyridin-3-yl)amino)-6-(pyridin-3-yl)pyrimidin-2-yl)-2-methylpiperidin-1-yl)ethan-1-one], the EC50 with OPM-2 and in the assay with A375 cells was 0.2 to 1 µM in each case.
